“And” between values parts separate entries of the source, which are not always exact repeats. Equal entries are not always repeated. Where two headings read alike, the source gives them in different places.
Legend:
[1] = system: brain metastases from breast tumors and other advanced solid tumors; settings: doses ≥ 420 mg/m^2, cited from earlier work
Text: (§1) The overall safety profile was favorable and consistent with the known side effect profile of unconjugated paclitaxel.

recurrent glioma tumors = settings: following a single intravenous infusion; cited from earlier work
Text: as §1

[2] = system: recurrent high-grade glioma (HGG); experiment: Phase II trial NCT01967810: efficacy (RANO response, PFS, OS); assay type: in vivo, human; settings: for duration (of response) rate: identical at 3, 6 and 12 months
Text: The protocol was reviewed and approved by the institutional review board of each participating center. All patients gave written informed consent for trial participation. According to 2007 WHO classification used in this study, HGG included grade 3 AGs such as anaplastic astrocytomas (AAs), anaplastic oligodendrogliomas (AOs), and anaplastic oligoastrocytomas (AOAs), as well as grade 4 GBM.[16] […] Additionally, a Karnofsky Performance Scale (KPS) score ≥ 80, neurologic stability with patients receiving stable doses of corticosteroids and anticonvulsants, and normal hepatic, renal, and hematologic function with ≥ 3 months of expected survival were requirements for inclusion. In patients with gliomas refractory to bevacizumab, radiological confirmation of tumor progression during bevacizumab therapy was necessary.
Gadolinium-enhanced magnetic resonance imaging of the brain was used to evaluate disease extent beginning at baseline and continued every two treatment cycles (ie, every 6 ± 2 weeks) until disease progression or unacceptable treatment toxicity. […] The Response Assessment in Neuro-Oncology (RANO) was utilized for two-dimensional intracranial tumor assessment.[17]
The primary objectives of the study were to determine (1) the objective response rate (ORR) in bevacizumab-naïve recurrent GBM patients (Arm 1), (2) progression-free survival rate at 3 months (PFS3) in the bevacizumab-refractory recurrent GBM patients (Arm 2), and (3) ORR in recurrent AG patients (Arm 3). The arms were predefined. Bevacizumab was not continued in bevacizumab-refractory patients.
The secondary objectives of this study were to determine (1) the ORR in Arm 2; (2) number of patients without progression at 3, 6, and 12 months in Arms 1 and 3; (3) number of patients without progression at 6 and 12 months in Arm 2; (4) median progression-free survival in each arm; (5) median duration of response in each arm; (6) median overall survival (OS) in each arm; (7) safety and tolerability; and (8) plasma pharmacokinetic profile.
ORR was defined as the proportion of patients with a CR or PR. The assessment was made according to RANO criteria based on the investigator’s assessment.[17] The ORR was the primary endpoint for Arms 1 and 3 and a secondary endpoint for Arm 2. ORR for each arm was calculated, and a 2-sided 95% confidence interval was provided using the exact method based on the binomial distribution. PFS was defined as the time from study enrollment to documented disease progression as determined by the local investigator, clear clinical progression in the absence of a brain MRI determination of progression, or death from any cause, whichever occurred first. PFS was the primary endpoint for Arm 2 and a secondary endpoint for Arms 1 and 3. Patients with a clinical determination of progression underwent an MRI assessment. If a clinical determination of progression for a patient was confirmed by an MRI, the date of the MRI was considered as the progression date for that patient. The data for patients who were still alive and free from disease progression at the time of data cutoff were administratively censored on the last assessment (or, if no post-baseline tumor assessment, at the time of first dose plus 1 day). Data for patients who were lost to follow-up prior to documented disease progression were censored at the last disease assessment date when the patient was known to be disease progression-free. Kaplan–Meier methodology was used to estimate the 3-month PFS rate, and 95% confidence intervals for PFS rate were computed using Greenwood’s formula by arms. In addition, the median PFS was calculated for each arm.

[3] = system: recurrent high-grade glioma (HGG); settings: ref Dmello et al., submitted to Neuro-Oncology Advances, cited from earlier work
Text: Variable response to paclitaxel between patients is a well-known phenomenon for several cancers, with ~50% of patients being susceptible to this drug as a monotherapy. We recently reported endoplasmic reticulum translocon complex protein SSR3 as a predictive biomarker for glioma and breast cancer susceptibility to this drug.[22] In a companion manuscript (Dmello et al., submitted to Neuro-Oncology Advances), we report an analysis of available tumor samples from this phase II trial (NCT01967810), where we evaluated the correlation with baseline SSR3 expression with OS on this cohort. This study ...

[4] = system: patients with recurrent HGG; experiment: Phase II trial NCT01967810: neurocognitive function testing (HVLT-R, TMT A/B, COWA; reliable change index); assay type: in vivo, human; settings: for neurocognitive function stable or improved (RCI), across the battery of tests: end of treatment visit
Method: The end of treatment assessment was only performed if no neurocognitive assessment was done within 30 (± 3) days. Information regarding the patient’s demographic background was collected. Neurocognitive test administrators were trained and provided with a manual to ensure standardized test administration. Neurocognitive test results were evaluated and read centrally. Three domains of neurocognitive function were measured as exploratory endpoints in this study: memory, visuomotor scanning speed (eg, complex visual scanning with a motor component), and executive function (eg, mental flexibility). The neurocognitive battery included the following tests: Hopkins Verbal Learning Tests—Revised (HVLT-R Total Recall, Delayed Recall, Delayed Recognition), Trail Making Test Part A and Part B[18] (TMBTA, TMBTB), and Controlled Oral Word Association (COWA).[19] […]

[5] = system: patients with recurrent HGG; experiment: Phase II trial NCT01967810: safety and tolerability (adverse events, NCI CTCAE v4.0; treatment discontinuation)
Method: Subsequently, a total of 69 patients were enrolled at 600 mg/m^2 as a starting dose. Dose reductions or delays were allowed if toxicity was observed. Patients were monitored for a minimum of 1 h after the completion of each infusion.
Dose reductions were mandatory for all patients who experienced any (life-threatening) Grade 4 toxicity, and for selected Grade 3 toxicities, such as Grade 3 pneumonitis, Grade 3 peripheral neuropathy or CNS toxicity, or Grade 3 cardiac adverse events (AEs).
Evaluation of safety included the analysis of AEs and the analysis of laboratory and vital signs data using the safety population. Verbatim descriptions of AEs were mapped according to the Medical Dictionary for Regulatory Activities (MedDRA) v17.0 or later thesaurus terms and graded according to the NCI CTCAE v4.0. […] Laboratory data was analyzed with shift tables and summaries of change from baseline to maximum post-treatment value based on local lab normal ranges. Change from baseline in vital signs were summarized. Neurocognitive function test data was analyzed by descriptive statistics (mean, SD and median) and change in neurocognitive function from baseline to each follow-up time point was categorized as improved, stable, or declined based on the reliable change index (RCI) for each test.

[6] = % of patients, N = 73, all arms
[7] = % of patients, N = 73, table cell prints n (%)

## paclitaxel trevatide [ANG1005]
[1]; 4/16 patients
  overall PR, non-CNS peripheral metastases response: 25%
[1]; 4/18 patients
  overall partial response (PR), CNS response: 22%
[1]; 10/18 patients
  stable disease (SD), CNS response: 56%
Recurrent glioma tumors
  transport across the BBB and tumor penetration: tumor penetration at therapeutic concentrations
[2]; 3 months, Arm 1, 95% CI: 12.2, 56.4
  PFS rate: 33.3%
[2]; 3 months, Arm 3, 95% CI: 18.9, 53.0
  PFS rate: 35.7%
[2]; 3 responders (2 in Arm 1, 1 in Arm 3), 95% CI: 2.1, NA
  median duration of response: 13.4 months
[2]; 6 months, Arm 1, 95% CI: 8.3, 49.6
  PFS rate: 26.7%
[2]; 6 months, Arm 3, 95% CI: 18.9, 53.0
  PFS rate: 35.7%
[2]; 12 months, Arm 1, 95% CI: 2.2, 34.6
  PFS rate: 13.3%
[2]; 12 months, Arm 3, 95% CI: 11.8, 44.4
  PFS rate: 26.8%
[2]; Arm 1, mITT
  clinical benefit rate (SD or better): 46.6%
[2]; Arm 1, mITT, 8 subjects
  progressive disease: 53.3%
[2]; Arm 1, mITT, 95% CI: 3.4, 14.6
  median OS: 13.4 months
[2]; Arm 1, safety population, 95% CI: 3.06, 13.67
  median OS: 6.74 months
[2]; Arm 1, 95% CI: 2.1, 13.4
  median duration of response: 7.75 months
[2]; Arm 1, 95% CI: 0.6, 91.0
  duration (of response) rate: 50.0%
[2]; Arm 2 (bevacizumab-refractory GBM), mITT, secondary endpoint
  responders (CR or PR): none
[2]; Arm 2, at each time point (3, 6, 12 months), PFS3 is the primary endpoint
  PFS rates: 0
[2]; Arm 2, mITT
  clinical benefit rate (SD or better): 22.2%
  subjects who progressed or died: All subjects
[2]; Arm 2, mITT, 7 subjects
  progressive disease: 77.8%
[2]; Arm 2, mITT, 95% CI: 1.9, 9.7
  median OS: 5.8 months
[2]; Arm 2, safety population, 95% CI: 1.94, 6.67
  median OS: 3.02 months
[2]; Arm 3
  median duration of response: not reached
[2]; Arm 3, mITT
  clinical benefit rate (SD or better): 53.6%
[2]; Arm 3, mITT, 13 subjects
  progressive disease: 46.4%
[2]; Arm 3, mITT, 95% CI: 10.7, 35.3
  median OS: 18.2 months
[2]; Arm 3, safety population, 95% CI: 8.67, 21.95
  median OS: 16.03 months
[2]; Arm 3, 95% CI: 100,100
  duration (of response) rate: 100%
[2]; across all 3 arms, mITT, investigator-assessed, 95% CI: 1.4, 2.1
  overall median PFS: 1.4 months
[2]; mITT n = 52, all arms, 3 subjects, 95% CI: 1.2, 15.9
  overall ORR (CR or PR, RANO, investigator): 5.8%
[2]; mITT n = 52, 47 subjects
  subjects who progressed or died: 90.4%
[2]; mITT population n = 52, 95% CI: 7.03, 14.78
  overall median OS: 12.94 months
[2]; overall, mITT n = 52, 28 subjects
  progressive disease: 53.8%
[2]; overall, 95% CI: 5.4, 94.5
  duration (of response) rate: 66.7%
[2]; safety population n = 73, 95% CI: 6.34, 12.94
  overall median OS: 8.67 months
[3]; patients with high SSR3 expression, 95% CI 14.59, NA, P = .2 vs low
  median OS: 18 months
[3]; patients with low SSR3 expression, 95% CI 5.41, NA
  median OS: 9 months
[4]; % of patients, Arm 1 (n = 5)
  neurocognitive function stable or improved (RCI), across the battery of tests: 40–100%
[4]; % of patients, Arm 1, EOT
  CTB composite score: decline in neurocognitive function: 40%
  CTB composite score: stable neurocognitive function: 60%
[4]; % of patients, Arm 2 (n = 4)
  neurocognitive function stable or improved (RCI), across the battery of tests: 50–75%
[4]; % of patients, Arm 2, EOT
  CTB composite score: decline in neurocognitive function: 50%
  CTB composite score: stable neurocognitive function: 50%
[4]; % of patients, Arm 3 (n = 13)
  neurocognitive function stable or improved (RCI), across the battery of tests: 69–100%
[4]; % of patients, Arm 3, EOT
  CTB composite score: decline in neurocognitive function: 25%
  CTB composite score: improved neurocognitive function: 8%
  CTB composite score: stable neurocognitive function: 67%
[4]; Arm 1, EOT
  CTB composite score: improved neurocognitive function: no patients
[4]; Arm 2, EOT
  CTB composite score: improved neurocognitive function: no patients
[5]; [6]
  most common AEs: alopecia: 31.5% and 32%
  most common AEs: fatigue: 30.1% and 30%
  most common AEs: hematologic: 32.9%
  most commonly reported AEs: neutropenia: 33%
[5]; % of patients, N = 73, 3 patients
  patients with a Grade 5 SAE: 4.1%
[5]; % of patients, N = 73, 9 patients
  patients with a Grade 4 SAE: 12.3%
[5]; % of patients, N = 73, 19 patients
  patients with a Grade 3 SAE: 26.0%
[5]; % of patients, N = 73, 34 patients
  related AEs by SOC: gastrointestinal disorders: 46.6%
[5]; % of patients, N = 73, 35 patients
  related AEs by SOC: skin and subcutaneous tissue disorders: 47.9%
[5]; % of patients, N = 73, 37 patients
  related AEs by SOC: blood and lymphatic system disorders: 50.7%
[5]; % of patients, N = 73, 42 patients
  related AEs by SOC: general disorders and administration site reactions: 57.5%
[5]; % of patients, N = 73, 44 patients
  AEs: skin and subcutaneous disorders: 60.3%
[5]; % of patients, N = 73, 45 patients
  AEs: gastrointestinal disorders: 61.6%
[5]; % of patients, N = 73, 50 patients
  AEs: general disorders and administration site reactions: 68.5%
[5]; % of patients, N = 73, 57 patients
  AEs: nervous system disorders including peripheral neuropathy: 78.1%
[5]; [7]
  SAEs related to ANG1005: patients reporting at least one related SAE: 28.8%
  SAEs: patients reporting at least one event: 45.2%
[5]; % of subjects, N = 73, 7 subjects
  treatment discontinued due to AEs: 9.6%
[5]; Arm 3 (hydrocephalus)
  number of AEs that led to death: one
[5]; N = 73, all arms
  patients who experienced at least one AE: All patients
[5]; all arms, N = 73, only septic shock considered potentially related to ANG1005
  number of AEs that led to death: 3
